Data: PMC6925188, “PBRM1 acts as a p53 lysine-acetylation reader to suppress renal tumor growth” (Nature Communications, 2019)
Marks after values point to notes of the source that are not given here.

Experiments:
endogenous PBRM1 and p53 = assay: Endogenous p53 immunoprecipitation, HEK293 cells; format: cell-based, human; settings: 50 μM, 8 h
From the text: Fig. 1 PBRM1 and p53 display a physical association that is enhanced after DNA damage. a U2OS cells (left) and HEK293T cells (right) were transfected with vector or Flag-PBRM1 and harvested for immunoprecipitation with Flag-M2 beads and elution with 3X Flag peptide. […] Lysates were subjected to immunoprecipitation with Flag-M2 beads. […] Lysates were immunoprecipitated with p53 antibody. The bound PBRM1 and p53 were examined by immunoblots. Source data are provided as a Source Data file.

RCC4 cells = assay: RT-qPCR of p53 targets, RCC4 cells; format: cell-based; design: CDKN1A expression / MDM2 expression / GADD45A expression / PUMA expression / NOXA expression: reference not given here; settings: 24 h; for CDKN1A expression / GADD45A expression / MDM2 expression / NOXA expression / PUMA expression: 100 μM
Protocol: (§1) Lysates were analyzed by immunoblots. c RCC4 cells with or without p53 KO were transfected with vector or Flag-PBRM1 at the indicated amounts. […] Cells were harvested for RT-qPCR (g) or ChIP followed by qPCR (h). […] Representative data is shown in i. Quantification of cell cycle phase is shown in j. Source data are provided as a Source Data file.
Total RNA was extracted from cells using the RNeasy Plus Mini Kit (74136, Qiagen), and the concentration was measured using the NanoDrop ND-1000 system (Thermo Scientific). Reverse transcription was performed using the First Strand cDNA Synthesis Kit (NP100042, Origen) with 0.5 µg total RNA. Real-time PCR was performed with Maxima SYBR Green qPCR Master Mix (K0253, Thermo Scientific) using the Roche LightCycler 480. […] GAPDH was used as an internal control. Data are shown as mean ± SEM for three independent experiments.

[1] = system: ACHN, Caki-1 and Ren-01 cells; assay: Immunoblot of p53 targets, kidney cancer cells with PBRM1 shRNA knockdown; format: cell-based; settings: 50 μM etoposide, Caki-1 and Ren-01
Protocol: as §1
After washing with ice-cold PBS, cells were scraped on ice and centrifuged at 10,000 × g for 1 min at 4 °C. For immunoblot analysis, cell pellets were lysed in 1% SDS containing a protease inhibitor cocktail followed by sonication with a FB50 sonic dismembrator (Fisher Scientific) at 20% amplitude for 15 s twice. After centrifuging for 10 min at 14,000 × g, the supernatants were combined with 5X SDS loading buffer (5% mercaptoethanol, 0.05% Bromophenol blue, 30% glycerol, 10% SDS, 250 mM Tris-HCl (pH 6.8)), boiled for 5 min and used in SDS-PAGE. After standard western blot procedures, the blots were developed using the ImageQuant LAS 4000 (GE healthcare Life Sciences) or ChemiDoc MP Imaging System (Bio-rad) with HyGLO™ Chemiluminescent HRP Detection Reagent (E2500, Denville Scientific) or Immobilon™ Western Chemiluminescent HRP Substrate (WBKLS0500, Millipore). […]
the indicated times. Lysates were analyzed via immunoblots. b. […]
were analyzed by immunoblots. c. […]
Lysates were analyzed via immunoblots. e. […]
Lysates were analyzed via immunoblots. f, g, h. […]

COc1cc([C@@H]2c3cc4c(cc3[C@@H](O[C@@H]3O[C@@H]5CO[C@@H](C)O[C@H]5[C@H](O)[C@H]3O)[C@H]3COC(=O)[C@H]23)OCO4)cc(OC)c1O [Etoposide]
endogenous PBRM1 precipitated by p53 (endogenous PBRM1 and p53): increased the amount of endogenous PBRM1 precipitated | expression of p53 downstream targets with PBRM1 restoration (RCC4 cells; 100 μM etoposide, RCC4): up-regulated by restoration of PBRM1 but not PBRM1 BD4* | CDKN1A expression (RCC4 cells; RCC4-GFP, assay 1): 49.6546 | GADD45A expression (RCC4 cells; RCC4-GFP, assay 1): 6.5687 | MDM2 expression (RCC4 cells; RCC4-GFP, assay 1): 12.9102 | NOXA expression (RCC4 cells; RCC4-GFP, assay 1): 7.6934 | PUMA expression (RCC4 cells; RCC4-GFP, assay 1): 10.0905 | CDKN1A expression (RCC4 cells; RCC4-GFP, assay 2): 44.3116 | GADD45A expression (RCC4 cells; RCC4-GFP, assay 2): 5.0617 | MDM2 expression (RCC4 cells; RCC4-GFP, assay 2): 12.821 | NOXA expression (RCC4 cells; RCC4-GFP, assay 2): 9.2403 | PUMA expression (RCC4 cells; RCC4-GFP, assay 2): 12.0208 | CDKN1A expression (RCC4 cells; RCC4-GFP, assay 3): 55.0506 | GADD45A expression (RCC4 cells; RCC4-GFP, assay 3): 5.7956 | MDM2 expression (RCC4 cells; RCC4-GFP, assay 3): 12.4332 | NOXA expression (RCC4 cells; RCC4-GFP, assay 3): 9.8148 | PUMA expression (RCC4 cells; RCC4-GFP, assay 3): 9.8829 | CDKN1A expression (RCC4 cells; RCC4-PBRM1-BD4*, assay 1): 45.9041 | GADD45A expression (RCC4 cells; RCC4-PBRM1-BD4*, assay 1): 6.7644 | MDM2 expression (RCC4 cells; RCC4-PBRM1-BD4*, assay 1): 11.4101 | NOXA expression (RCC4 cells; RCC4-PBRM1-BD4*, assay 1): 9.833 | PUMA expression (RCC4 cells; RCC4-PBRM1-BD4*, assay 1): 10.713 | CDKN1A expression (RCC4 cells; RCC4-PBRM1-BD4*, assay 2): 43.4526 | GADD45A expression (RCC4 cells; RCC4-PBRM1-BD4*, assay 2): 6.5588 | MDM2 expression (RCC4 cells; RCC4-PBRM1-BD4*, assay 2): 13.589 | NOXA expression (RCC4 cells; RCC4-PBRM1-BD4*, assay 2): 9.0815 | PUMA expression (RCC4 cells; RCC4-PBRM1-BD4*, assay 2): 12.1902 | CDKN1A expression (RCC4 cells; RCC4-PBRM1-BD4*, assay 3): 51.1258 | GADD45A expression (RCC4 cells; RCC4-PBRM1-BD4*, assay 3): 6.6252 | MDM2 expression (RCC4 cells; RCC4-PBRM1-BD4*, assay 3): 12.0244 | NOXA expression (RCC4 cells; RCC4-PBRM1-BD4*, assay 3): 9.5044 | PUMA expression (RCC4 cells; RCC4-PBRM1-BD4*, assay 3): 12.2164 | CDKN1A expression (RCC4 cells; RCC4-PBRM1, assay 1): 70.754 | GADD45A expression (RCC4 cells; RCC4-PBRM1, assay 1): 7.8588 | MDM2 expression (RCC4 cells; RCC4-PBRM1, assay 1): 16.2786 | NOXA expression (RCC4 cells; RCC4-PBRM1, assay 1): 11.5749 | PUMA expression (RCC4 cells; RCC4-PBRM1, assay 1): 13.0108 | CDKN1A expression (RCC4 cells; RCC4-PBRM1, assay 2): 72.9408 | GADD45A expression (RCC4 cells; RCC4-PBRM1, assay 2): 6.8115 | MDM2 expression (RCC4 cells; RCC4-PBRM1, assay 2): 15.8174 | NOXA expression (RCC4 cells; RCC4-PBRM1, assay 2): 11.4155 | PUMA expression (RCC4 cells; RCC4-PBRM1, assay 2): 15.9071 | CDKN1A expression (RCC4 cells; RCC4-PBRM1, assay 3): 96.454 | GADD45A expression (RCC4 cells; RCC4-PBRM1, assay 3): 7.8052 | MDM2 expression (RCC4 cells; RCC4-PBRM1, assay 3): 16.0682 | NOXA expression (RCC4 cells; RCC4-PBRM1, assay 3): 13.296 | PUMA expression (RCC4 cells; RCC4-PBRM1, assay 3): 14.8041 | p21 induction by p53 with PBRM1 knockdown [1]: significantly reduced p21 induction
